Measurements published in BindingDB's records for doi:10.1021/bi00839a042 (Michigan State University, 1969).

Molecular target: T1, Complement C1s subcomponent (Homo sapiens, UniProt P09871)
T1 sequence (P09871 whole entry): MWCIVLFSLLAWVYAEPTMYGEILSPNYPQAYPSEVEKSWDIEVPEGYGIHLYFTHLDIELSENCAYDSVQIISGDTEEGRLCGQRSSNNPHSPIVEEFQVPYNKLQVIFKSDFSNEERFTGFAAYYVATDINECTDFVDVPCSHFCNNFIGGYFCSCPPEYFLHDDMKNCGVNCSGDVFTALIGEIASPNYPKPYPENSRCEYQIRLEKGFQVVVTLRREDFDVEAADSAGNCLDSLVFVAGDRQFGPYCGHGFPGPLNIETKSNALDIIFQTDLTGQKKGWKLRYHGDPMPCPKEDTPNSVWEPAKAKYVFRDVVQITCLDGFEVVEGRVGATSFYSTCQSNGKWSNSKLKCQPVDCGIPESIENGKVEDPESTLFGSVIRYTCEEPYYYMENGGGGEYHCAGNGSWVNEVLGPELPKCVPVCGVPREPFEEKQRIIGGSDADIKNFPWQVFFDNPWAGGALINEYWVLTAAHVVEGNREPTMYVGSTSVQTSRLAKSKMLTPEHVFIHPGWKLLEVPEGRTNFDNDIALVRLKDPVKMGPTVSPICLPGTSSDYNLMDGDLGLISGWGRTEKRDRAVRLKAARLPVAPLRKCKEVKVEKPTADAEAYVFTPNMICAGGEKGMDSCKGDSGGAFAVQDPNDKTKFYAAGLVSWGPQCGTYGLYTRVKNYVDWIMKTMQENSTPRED
Test: Enzymatic Assay
Conditions: pH 8.05; 25.50 °C
Description: All readings were made in a Hitachi-Coleman ultraviolet-visible 101 spectrophotometer.

| Ki [mM] | Compound |
| --- | --- |
| 13.4 | CC(C)(C)CNC(=N)N [2,2'-Dimethyl-1-guanidinopropane] |
| 0.0765 | Cc1nc(NC(=N)N)nc2ccccc12 [2-Guanidino-4-methylguinazoline] |
| 0.548 | N=C(N)Nc1ccccc1 [Alpha-Phenylguanidine] |
| 1.12 | O=C(CCl)NC(Cc1ccc(O)cc1)C(=O)O [N-Chloroacetyl-L-tyrosine] |
| 0.37 | O=C(NC(Cc1ccc(O)cc1)C(=O)O)c1ccccc1 [N-z-L-Tyr] |

The remaining lines, values behind:

| Compound | Ki [mM] |
| --- | --- |
| N=C(N)c1ccccc1 [Benzamidine] | 0.603 |
| N=C(N)NN [CAS_2146] | 18.1 |
| N=C(N)NCC(=O)O [Guanidinacetic] | 4.37 |
| N=C(N)c1ccc([N+](=O)[O-])cc1 [p-Nitrobenzamidine] | 92.5 |
